According to patent publication US9884842B2, “Combretastatin analogs” (The Board of Trustees of the University of Arkansas, priority 2013, dated 2018):

Columns and labels:
MOLT-4 = assay: NCI growth inhibition and cytotoxicity screen, Leukemia panel; details: Homo sapiens; for GI50: MOLT-4; for CC50: MOLT-4, read-out: LC50
OVCAR-5 = assay: NCI growth inhibition and cytotoxicity screen, Ovarian Cancer panel; details: Homo sapiens; for GI50: OVCAR-5; for CC50: OVCAR-5, read-out: LC50
SK-MEL-28 = assay: NCI growth inhibition and cytotoxicity screen, Melanoma panel; details: Homo sapiens; for GI50: SK-MEL-28; for CC50: SK-MEL-28, read-out: LC50
MDA-MB-468 = assay: cells; details: Homo sapiens; for GI50: MDA-MB-468; for CC50: MDA-MB-468, read-out: LC50
A549/ATCC = assay: NCI growth inhibition and cytotoxicity screen, Lung Cancer panel; details: Homo sapiens; for GI50: A549; for CC50: A549, read-out: LC50
OVCAR-8 = assay: NCI growth inhibition and cytotoxicity screen, Ovarian Cancer panel; details: Homo sapiens; for GI50: OVCAR-8; for CC50: OVCAR-8, read-out: LC50
HOP-62 = assay: NCI growth inhibition and cytotoxicity screen, Lung Cancer panel; details: Homo sapiens; for GI50: HOP-62; for CC50: HOP-62, read-out: LC50
NCI-H522 = assay: as above; assay type: cell-based; details: Homo sapiens, NCI-H522, Table 1, cell line NCIH522 (Lung Cancer); for CC50: read-out: LC50 (the source's name)
HCC-2998 = assay: NCI growth inhibition and cytotoxicity screen, Colon Cancer panel; details: Homo sapiens; for GI50: HCC 2998; for CC50: HCC 2998, read-out: LC50
MDA-MB-435 = assay: NCI growth inhibition and cytotoxicity screen, Melanoma panel; details: Homo sapiens; for GI50: MDA-MB-435; for CC50: MDA-MB-435, read-out: LC50
RPMI-8226 = assay: NCI growth inhibition and cytotoxicity screen, Leukemia panel; details: Homo sapiens; for GI50: RPMI-8226; for CC50: RPMI-8226, read-out: LC50
RXF 393 = assay: NCI growth inhibition and cytotoxicity screen, Renal Cancer panel; details: Homo sapiens; for GI50: RXF 393; for CC50: RXF 393, read-out: LC50
SNB-75 = assay: NCI growth inhibition and cytotoxicity screen, CNS Cancer panel; details: Homo sapiens; for GI50: SNB-75; for CC50: SNB-75, read-out: LC50
HL-60(TB) = assay: cells; details: Homo sapiens; for GI50: HL-60; for CC50: HL-60, read-out: LC50
HOP-92 = assay: NCI growth inhibition and cytotoxicity screen, Lung Cancer panel; details: Homo sapiens; for GI50: HOP-92; for CC50: HOP-92, read-out: LC50
COLO 205 = assay: NCI growth inhibition and cytotoxicity screen, Colon Cancer panel; details: Homo sapiens; for GI50: COLO 205; for CC50: COLO 205, read-out: LC50
UACC-62 = assay: NCI growth inhibition and cytotoxicity screen, Melanoma panel; details: Homo sapiens; for GI50: UACC-62; for CC50: UACC-62, read-out: LC50
DU-145 = assay: NCI growth inhibition and cytotoxicity screen, Prostate Cancer panel; details: Homo sapiens; for GI50: DU-145; for CC50: DU-145, read-out: LC50
MDA-MB-231/ATCC = assay: NCI growth inhibition and cytotoxicity screen, Breast Cancer panel; details: Homo sapiens; for GI50: MDA-MB-231; for CC50: MDA-MB-231, read-out: LC50
SK-MEL-2 = assay: NCI growth inhibition and cytotoxicity screen, Melanoma panel; details: Homo sapiens; for GI50: SK-MEL-2; for CC50: SK-MEL-2, read-out: LC50
HS 578T = assay: NCI growth inhibition and cytotoxicity screen, Breast Cancer panel; details: Homo sapiens; for CC50: read-out: LC50
TK-10 = assay: NCI growth inhibition and cytotoxicity screen, Renal Cancer panel; details: Homo sapiens; for GI50: TK-10; for CC50: TK-10, read-out: LC50
T-47D = assay: NCI growth inhibition and cytotoxicity screen, Breast Cancer panel; details: Homo sapiens, T47D; for CC50: read-out: LC50
ACHN = assay: NCI growth inhibition and cytotoxicity screen, Renal Cancer panel; details: Homo sapiens; for CC50: read-out: LC50
OVCAR-3 = assay: cells; details: Homo sapiens; for GI50: OVCAR-3; for CC50: OVCAR-3, read-out: LC50
A498 = assay: NCI growth inhibition and cytotoxicity screen, Renal Cancer panel; details: Homo sapiens; for GI50: A498; for CC50: A498, read-out: LC50
PC-3 = assay: NCI growth inhibition and cytotoxicity screen, Prostate Cancer panel; details: Homo sapiens; for GI50: PC-3; for CC50: PC-3, read-out: LC50
OVCAR-4 = assay: NCI growth inhibition and cytotoxicity screen, Ovarian Cancer panel; details: Homo sapiens; for GI50: OVCAR-4; for CC50: OVCAR-4, read-out: LC50
SK-MEL-5 = assay: NCI growth inhibition and cytotoxicity screen, Melanoma panel; details: Homo sapiens; for GI50: SK-MEL-5; for CC50: SK-MEL-5, read-out: LC50
SF-539 = assay: NCI growth inhibition and cytotoxicity screen, CNS Cancer panel; details: Homo sapiens; for GI50: SF-539; for CC50: SF-539, read-out: LC50
MCF7 = assay: NCI growth inhibition and cytotoxicity screen, Breast Cancer panel; details: Homo sapiens; for GI50: MCF7; for CC50: MCF7, read-out: LC50

SMILES: COc1cc(OC)cc(/C(C#N)=C/c2c[nH]c3ccccc23)c1 [Formula (I)(b)]
- GI50 (MOLT-4): 49.1 nM
- CC50 (MOLT-4): > 100000 nM
- GI50 (OVCAR-5): > 100 nM
- CC50 (OVCAR-5): > 100000 nM
- GI50 (SK-MEL-28): 81.1 nM
- CC50 (SK-MEL-28): > 100000 nM
- GI50 (MDA-MB-468): > 100 nM
- CC50 (MDA-MB-468): > 100000 nM
- GI50 (A549/ATCC): 61.8 nM
- CC50 (A549/ATCC): > 100000 nM
- GI50 (OVCAR-8): > 100 nM
- CC50 (OVCAR-8): > 100000 nM
- GI50 (HOP-62): > 100 nM
- CC50 (HOP-62): > 100000 nM
- GI50 (NCI-H522): 27.1 nM
- CC50 (NCI-H522): > 100000 nM
- GI50 (HCC-2998): > 100 nM
- CC50 (HCC-2998): > 100000 nM
- GI50 (MDA-MB-435): 20.3 nM
- CC50 (MDA-MB-435): > 100000 nM
- GI50 (RPMI-8226): 65.5 nM
- CC50 (RPMI-8226): > 100000 nM
- GI50 (RXF 393): 83.7 nM
- CC50 (RXF 393): > 100000 nM
- GI50 (SNB-75): 34.8 nM
- CC50 (SNB-75): > 100000 nM
- GI50 (HL-60(TB)): 31.2 nM
- CC50 (HL-60(TB)): > 100000 nM
- GI50 (HOP-92): 68.4 nM
- CC50 (HOP-92): > 100000 nM
- GI50 (COLO 205): 47.7 nM
- CC50 (COLO 205): 15200 nM
- GI50 (UACC-62): 49.3 nM
- CC50 (UACC-62): > 100000 nM
- GI50 (DU-145): > 100 nM
- CC50 (DU-145): > 100000 nM
- GI50 (MDA-MB-231/ATCC): > 100 nM
- CC50 (MDA-MB-231/ATCC): > 100000 nM
- GI50 (SK-MEL-2): 51.2 nM
- CC50 (SK-MEL-2): > 100000 nM
- GI50 (HS 578T): > 100 nM
- CC50 (HS 578T): > 100000 nM
- GI50 (TK-10): > 100 nM
- CC50 (TK-10): > 100000 nM
- GI50 (T-47D): > 100 nM
- CC50 (T-47D): > 100000 nM
- GI50 (ACHN): > 100 nM
- CC50 (ACHN): > 100000 nM
- GI50 (OVCAR-3): 31.2 nM
- CC50 (OVCAR-3): > 100000 nM
- GI50 (A498): 35.3 nM
- CC50 (A498): > 100000 nM
- GI50 (PC-3): 75.5 nM
- CC50 (PC-3): > 100000 nM
- GI50 (OVCAR-4): > 100 nM
- CC50 (OVCAR-4): > 100000 nM
- GI50 (SK-MEL-5): 48.6 nM
- CC50 (SK-MEL-5): > 100000 nM
- GI50 (SF-539): 52.2 nM
- CC50 (SF-539): 90200 nM
- GI50 (MCF7): 41.4 nM
- CC50 (MCF7): > 100000 nM

SMILES: COc1cc(/C=C/c2cc3ccccc3o2)cc(OC)c1OC [Formula (I)(c)]
- GI50 (MOLT-4): 0.85 nM
- CC50 (MOLT-4): > 100000 nM
- GI50 (OVCAR-5): 2.94 nM
- CC50 (OVCAR-5): > 100000 nM
- GI50 (SK-MEL-28): 0.83 nM
- CC50 (SK-MEL-28): > 100000 nM
- GI50 (MDA-MB-468): 0.66 nM
- CC50 (MDA-MB-468): > 100000 nM
- GI50 (A549/ATCC): 0.61 nM
- CC50 (A549/ATCC): > 100000 nM
- GI50 (OVCAR-8): 2.05 nM
- CC50 (OVCAR-8): > 100000 nM
- GI50 (HOP-62): 0.77 nM
- CC50 (HOP-62): > 100000 nM
- GI50 (NCI-H522): 0.43 nM
- CC50 (NCI-H522): > 100000 nM
- GI50 (HCC-2998): 3.34 nM
- CC50 (HCC-2998): > 100000 nM
- GI50 (MDA-MB-435): 0.078 nM
- CC50 (MDA-MB-435): > 100000 nM
- GI50 (RPMI-8226): 0.7 nM
- CC50 (RPMI-8226): > 100000 nM
- GI50 (RXF 393): 0.32 nM
- CC50 (RXF 393): > 100000 nM
- GI50 (SNB-75): 0.47 nM
- CC50 (SNB-75): > 100000 nM
- GI50 (HL-60(TB)): 0.35 nM
- CC50 (HL-60(TB)): > 100000 nM
- GI50 (HOP-92): 0.17 nM
- CC50 (HOP-92): > 100000 nM
- GI50 (COLO 205): 0.4 nM
- CC50 (COLO 205): 19500 nM
- GI50 (UACC-62): 0.5 nM
- CC50 (UACC-62): > 100000 nM
- GI50 (DU-145): 1.86 nM
- CC50 (DU-145): > 100000 nM
- GI50 (MDA-MB-231/ATCC): 1.17 nM
- CC50 (MDA-MB-231/ATCC): > 100000 nM
- GI50 (SK-MEL-2): 0.76 nM
- CC50 (SK-MEL-2): > 100000 nM
- GI50 (HS 578T): 0.49 nM
- CC50 (HS 578T): > 100000 nM
- GI50 (TK-10): 8.4 nM
- CC50 (TK-10): > 100000 nM
- GI50 (T-47D): 0.69 nM
- CC50 (T-47D): > 100000 nM
- GI50 (ACHN): 0.86 nM
- CC50 (ACHN): > 100000 nM
- GI50 (OVCAR-3): 0.42 nM
- CC50 (OVCAR-3): 48100 nM
- GI50 (A498): 0.4 nM
- CC50 (A498): 48400 nM
- GI50 (PC-3): 0.52 nM
- CC50 (PC-3): > 100000 nM
- GI50 (OVCAR-4): 1.15 nM
- CC50 (OVCAR-4): > 100000 nM
- GI50 (SK-MEL-5): 0.34 nM
- CC50 (SK-MEL-5): 42000 nM
- GI50 (SF-539): 0.27 nM
- CC50 (SF-539): > 100000 nM
- GI50 (MCF7): 0.37 nM
- CC50 (MCF7): > 100000 nM
